Assays:
[1] = biological target: T1, LPL (lipoprotein lipase) (Mus musculus, UniProt P11152); assay: Confirmation test of LPL activation effect in mouse skeletal muscle cells (C2C12 cells); assay type: cell-based; conditions: 8 hours exposure, vs control group
T1 construct: endogenous in cells; host or cells: C2C12 cells, differentiated
T1 sequence (P11152 28-474): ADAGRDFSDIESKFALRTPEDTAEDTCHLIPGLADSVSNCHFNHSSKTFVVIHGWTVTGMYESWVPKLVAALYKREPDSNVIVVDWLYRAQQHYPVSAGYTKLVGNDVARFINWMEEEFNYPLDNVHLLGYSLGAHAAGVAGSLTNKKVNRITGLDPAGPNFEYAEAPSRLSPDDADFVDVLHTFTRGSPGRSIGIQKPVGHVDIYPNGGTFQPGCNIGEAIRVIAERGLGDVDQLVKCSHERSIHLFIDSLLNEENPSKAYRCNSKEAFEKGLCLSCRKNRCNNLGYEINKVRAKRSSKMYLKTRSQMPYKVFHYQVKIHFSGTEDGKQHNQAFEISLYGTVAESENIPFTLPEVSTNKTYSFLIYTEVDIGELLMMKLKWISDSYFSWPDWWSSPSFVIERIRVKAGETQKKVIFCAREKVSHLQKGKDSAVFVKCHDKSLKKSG
Protocol: Human skeletal muscle cells (human skeletal muscle myoblasts) or mouse skeletal muscle cells (C2C12 cells) that were seeded onto plates, cultured, and differentiated were exposed to a 0.3% dimethyl sulfoxide-containing culture medium in which the compound of the present invention was dissolved (concentration: 10 μM or 30 μM). The medium was removed 8 hours after exposure, 10 mM of Tris-HCl buffer (150 mM NaCl, 10 μ/mL; containing heparin sodium) was added to the cells, and the cells were incubated at 37° C. in the presence of 5% CO2 for 10 minutes. LPL activity in the supernatant was measured using an LPL activity assay kit (made by Roar Biomedical Inc.). LPL activity was evaluated based on the increase in fluorescence intensity 10 to 70 minutes after mixing the supernatant with the LPL substrate. The mean value of the increase in fluorescence intensity of the cells exposed to a 0.3% dimethyl sulfoxide-containing culture medium […] was used as mean value of the control group. Note that the compounds of Examples 18, 19, 32, 45 and 57 were tested using human skeletal muscle cells, and other compounds were tested using mouse skeletal muscle cells. The rate of increase (%) was calculated from the measured values of LPL activity in the control group and the experimental group, according to the following formula. Rate of increase in LPL activity (%)=[(mean value of the experimental group)−(mean value of the control group)]/(mean value of the control group)×100

Row | Structure (SMILES) | Rate of increase in LPL activity ([1]; amount of addition 10 μM) [%] | Rate of increase in LPL activity ([1]; amount of addition 30 μM) [%] | melting point [°C]
1 | COc1cc(OCc2ccc(C#N)cc2)ccc1-c1c[nH]c(-c2ccc(F)c(F)c2)n1 [Example 96] | 27 | 96 | 173 to 176
2 | COc1cc(OCc2ccc(Br)cc2F)ccc1-c1c[nH]c(-c2ccc(Cl)cc2)n1 [Example 80] | 21 | 302 | 191 to 195
3 | COc1cc(OCc2ccc(Cl)cc2)ccc1-c1c[nH]c(-c2cccc(F)c2)n1.Cl [Example 78] | 14 | 60 | 231 to 232
4 | COc1cccc(-c2nc(-c3ccc(OCc4ccc(Br)cc4F)cc3OC)c[nH]2)c1.Cl [Example 99] | 14 | 90 | 255 to 258
5 | COc1cc(-c2c[nH]c(-c3ccsc3)n2)ccc1OCc1ccc(Br)cc1F.Cl [Example 69] | 52 | 142 | 251 to 252
6 | COc1cc(OCc2ccccc2)ccc1-c1c[nH]c(C(C)C)n1 [Example 30] | 11 | 47 | 154 to 156
7 | COc1cc(OCc2ccc(Cl)cc2)ccc1-c1c[nH]c(-c2cc(Cl)cc(Cl)c2)n1.Cl [Example 118] | 80 | 102 | 233 to 241
8 | COc1cc(-c2c[nH]c(-c3ccc(F)c(F)c3)n2)ccc1OCc1ccccc1.Cl [Example 47] | 38 | 120 | 226 to 227
9 | COc1cc(-c2c[nH]c(-c3ccsc3)n2)ccc1OCc1cccc(C#N)c1.Cl [Example 72] | 70 | 123 | 224 to 227
10 | COc1cc(OCc2ccc(C#N)cc2)ccc1-c1c[nH]c(-c2cccc(Cl)c2)n1 [Example 97] | 27 | 63 | 154 to 157
11 | COc1cc(-c2c[nH]c(-c3cccc(F)c3)n2)ccc1OCc1ccc(Cl)cc1.Cl [Example 79] | 16 | 64 | 235 to 237
12 | COc1cc(OCc2ccc(Br)cc2F)ccc1-c1c[nH]c(-c2ccc(C(C)(C)C)cc2)n1 [Example 90] | 18 | 130 | 177 to 180
13 | COc1cc(-c2c[nH]c(-c3ccc(C)c(F)c3)n2)ccc1OCc1ccccc1.Cl [Example 16] | 54 | 119 | 236 to 237
14 | COc1cc(-c2c[nH]c(-c3cccs3)n2)ccc1OCc1ccc(Cl)cc1 [Example 31] | 10 | 38 | 197 to 200
15 | COc1cc(OCc2ccccc2)ccc1-c1c[nH]c(-c2ccc(C)cc2)n1 [Example 109] | 12 | 77 | 219 to 222
16 | COc1cc(-c2c[nH]c(-c3ccc(F)cc3)n2)ccc1OCc1ccc(Cl)cc1.Cl [Example 48] | 18 | 96 | 243 to 245
17 | COc1ccc(-c2nc(-c3ccc(OCc4ccc(Cl)cc4)cc3OC)c[nH]2)cc1 [Example 104] | 74 | 365 | 170 to 173
18 | COc1cc(OCc2ccc(Br)cc2F)ccc1-c1c[nH]c(-c2cccc(Cl)c2)n1.Cl [Example 88] | 12 | 98 | 231 to 236
19 | COc1cc(OCc2ccc(Cl)cc2)ccc1-c1c[nH]c(-c2ccccc2C(F)(F)F)n1 [Example 83] | 29 | 100 | 158 to 161
20 | COc1cc(OCc2ccc(Cl)cc2)ccc1-c1c[nH]c(-c2ccc(F)c(F)c2)n1 [Example 112] | 58 | 199 | 252 to 257

Row | Structure (SMILES) | Rate of increase in LPL activity ([1]; amount of addition 10 μM) [%] | Rate of increase in LPL activity ([1]; amount of addition 30 μM) [%] | melting point [°C]
21 | COc1cc(-c2c[nH]c(-c3ccc(Cl)cc3)n2)ccc1OCc1ccccc1 [Example 4] | 31 | 45 | 228 to 229
22 | COc1cc(OCc2ccc(Cl)cc2)ccc1-c1c[nH]c(-c2ccc(Cl)cc2)n1 [Example 82] | 27 | 86 | 181 to 184
23 | COc1cc(-c2c[nH]c(-c3ccc(F)cc3)n2)ccc1OCc1ccc(C#N)cc1 [Example 56] | 38 | 62 | 224 to 226
24 | COc1cc(OCc2ccc(Cl)cc2F)ccc1-c1c[nH]c(-c2ccc(F)cc2)n1.Cl [Example 133] | 63 | 236 | 259 to 260
25 | COc1cc(-c2c[nH]c(-c3cccc(F)c3)n2)ccc1OCc1ccccc1.Cl [Example 46] | 49 | 88 | 212 to 215
26 | COc1cccc(-c2nc(-c3ccc(OCc4ccc(C#N)cc4)cc3OC)c[nH]2)c1 [Example 100] | 12 | 43 | 139 to 142
27 | COc1cc(OCc2ccc(Cl)cc2)ccc1-c1c[nH]c(-c2cccc(Cl)c2)n1.Cl [Example 113] | 4 | 123 | 223 to 226
28 | COc1cc(-c2c[nH]c(-c3cc(Cl)cc(Cl)c3)n2)ccc1OCc1ccccc1 [Example 15] | 79 | 97 | 250 to 251
29 | COc1cccc(-c2nc(-c3ccc(OCc4ccc(Cl)cc4F)cc3OC)c[nH]2)c1.Cl [Example 134] | 32 | 308 | 245 to 249
30 | COc1cc(-c2c[nH]c(-c3cccc(C(F)(F)F)c3)n2)ccc1OCc1ccc(C#N)cc1.Cl [Example 75] | 43 | 89 | 231 to 232
31 | COc1cc(OCc2ccccc2)ccc1-c1c[nH]c(-c2cc(F)cc(F)c2)n1.Cl [Example 121] | 113 | 270 | 247 to 249
32 | COc1cc(OCc2ccccc2)ccc1-c1c[nH]c(-c2ccsc2)n1 [Example 24] | 59 | 77 | 188 to 192
33 | COc1cc(-c2c[nH]c(-c3ccsc3)n2)ccc1OCc1ccc(Cl)cc1 [Example 71] | 42 | 114 | 197 to 201
34 | COc1cc(OCc2ccc(C#N)cc2)ccc1-c1c[nH]c(-c2ccc(C)cc2)n1 [Example 85] | 10 | 99 | 195 to 198
35 | COC(=O)c1ccc(-c2nc(-c3ccc(OCc4ccccc4)c(OC)c3)c[nH]2)cc1.Cl [Example 38] | 35 | 100 | 222 to 227
36 | COc1ccc(-c2nc(-c3ccc(OCc4ccc(Br)cc4F)cc3OC)c[nH]2)cc1OC.Cl [Example 93] | 36 | 174 | 255 to 256
37 | COc1cc(OCc2ccc(Cl)cc2)ccc1-c1c[nH]c(-c2cccc(C(F)(F)F)c2)n1.Cl [Example 119] | 67 | 174 | 231 to 236
38 | COc1cc(-c2c[nH]c(-c3ccc(F)cc3)n2)ccc1OCc1cccc(C#N)c1.Cl [Example 61] | 53 | 92 | 242 to 244
39 | COc1cc(OCc2ccc(Br)cc2F)ccc1-c1c[nH]c(-c2ccccc2)n1.Cl [Example 11] | 96 | 231 | 239 to 240
